Counter-ions that a name gives are not always drawn.
Key:
[1] = tested on: patients with glaucoma or ocular hypertension; conditions: 1 year; bimatoprost 0.03% once or twice daily, timolol maleate 0.5% twice daily; subset of 310 patients; cited from earlier work
[2] = tested on: human cultured conjunctiva-derived epithelial cells; conditions: cited from earlier work; for direct stimulation of inflammatory pathways involving adhesion molecules or class II antigens: in vitro; for toxicity observed: primarily related to the concentration of benzalkonium chloride
[3] = tested on: eyes of conscious Beagle dogs; conditions: cited from earlier work; for conjunctival hyperemia or adverse ocular effects at baseline (time 0): 1% (w/v) topical, dog eyes; for effect of L-NAME on elicited ocular surface hyperemia: L-NAME 1% treated eyes, 0-6 h
rabbit eye conjunctiva = conditions: topical dose of 10 μg (0.03%, 30 μl); cited from earlier work
[4] = tested on: rabbit isolated jugular veins; test: Vasorelaxation in histamine-precontracted rabbit isolated jugular veins; format: cell-based
Text: FIG. 3. Concentration-response curves for (FIG. 3A) bimatoprost and (FIG. 3B) latanoprost free acid in histamine-precontracted endothelium-intact and endothelium-denuded rabbit isolated jugular veins. Results are expressed as mean±S.E.M. of 5-6 animals. FIG. 3A adapted from Chen J et al., Invest Ophthalmol Vis Sci 2004; 45:ARVO E-Abstract 2609; FIG. 3B extends results reported in Chen J et al., Invest Ophthalmol Vis Sci 2004; 45:ARVO E-Abstract 2609; and Pharmacology Review of New Drug Application 21-275. FDA/Center for Drug Evaluation and Research. 2001;Part 1 and Part 2:1-107. Available online at http://www.fda.gov/cder/foi/nda/2001/21275_Lumigan.htm.
FIG. 4. Concentration-response curves for (FIG. 4A) bimatoprost and (FIG. 4B) latanoprost free acid in the presence or absence of indomethacin in endothelium-intact rabbit isolated jugular veins. Results are expressed as mean±S.E.M. of 7 animals and extend previous results reported in Pharmacology Review of New Drug Application 21-275. FDA/Center for Drug Evaluation and Research. 2001;Part 1 and Part 2:1-107. Available online at http://www.fda.gov/cder/foi/nda/2001/21275_Lumigan.htm.
FIG. 5. Concentration-response curves for (FIG. 5A) bimatoprost and (FIG. 5B) latanoprost free acid in the presence of 100 μM L-NAME or 100 (μM D-NAME control in endothelium-intact rabbit isolated jugular veins. Results are expressed as mean±S.E.M. of 6 animals. *P≦0.05, compared to responses in D-NAME pretreated tissues at the same concentration, paired t-test.
The pharmacological mechanism of ocular surface hyperemia elicited by bimatoprost and latanoprost was investigated using the rabbit jugular vein preparation as a quantitative in vitro model (Chen J. et al., Br J Pharmacol 1995; 116:3035-3041). In these studies, tissues were suspended in jacketed organ baths containing Krebs buffer with 1 μM indomethacin (endothelium-intact and -denuded) or in its absence (endothelium-intact) and precontracted with 3 μM histamine. Vasorelaxant and contractile activity were determined as a percentage (%) of the control tone elicited by histamine. Statistical comparisons for the vasorelaxant activity consisted of testing for significance of difference at each of the concentrations tested using the Student'-s t-test for unpaired samples (indomethacin vs no indomethacin) and paired samples (L-NAME vs D-NAME). Differences were considered statistically significant for P-values ≦0.05.
Indomethacin is a cyclooxygenase inhibitor that is routinely used in prostanoid receptor assays (Chen J et al., Current protocols in pharmacology. New York: John Wiley & Sons, Inc., 2001; 4.18.1-4.18.41). Studies of intact and viable isolated tissues, such as the rabbit jejunum (Ferreira S H, Herman A G, Vane J R., Br J Pharmacol 1976; 56:469-477) and human bronchial muscle (Haye-Legrand I, Cerrina J, Raffestin B et al., J Pharmacol Exp Ther 1986; 239:536-541), found the basal output of prostaglandins to be 8-23 pg/mg of tissue at baseline or over 30 min collection periods. In the presence of 1.7 and 2.79 μM indomethacin, the amounts of prostaglandins generated in isolated tissues become negligible (Botting J H, Salzmann R., Br J Pharmacol 1974; 50:119-124; Haye-Legrand I, Cerrina J, Raffestin B et al., J Pharmacol Exp Ther 1986; 239:536-541). The 1 μM concentration of indomethacin in the tissue bath, in our experience, is sufficient to prevent biosynthesis of prostanoids within isolated vascular tissue preparations (Alster P, Wennmalm Å., Eur J Pharmacol 1983; 86:441-446; Chen J et al., Current protocols in pharmacology. New York: John Wiley & Sons, Inc., 2001; 4.18.1-4.18.41). At substantially higher concentrations, indomethacin has been reported to lose selectivity for prostanoid biosynthesis inhibition (Aboulafia J et al., Br J Pharmacol 1976; 58:223-228; Goodfriend T L, Simpson R U., Br J Pharmacol 1981; 72:247-255; Northover B J, Br J Pharmacol 1971; 41:540-551; Sawdy R et al., Br J Pharmacol 1998; 125:1212-1217). […]

[5] = tested on: rabbit isolated jugular veins; conditions: rabbit jugular vein; cited from earlier work
[6] = bimatoprost 0.1%, latanoprost 0.005%, PGE2 0.01%

CC(C)(C)NC[C@H](O)COc1nsnc1N1CCOCC1 [timolol maleate, (−)-1-tert-butylamino-3-[(4-morpholino-1,2,5-thiodiazol-3yl)oxy]-2-propanol maleate]
mean laser-flare photometry readings and mean changes from baseline [1]: no significant differences among the treatment groups

CC(C)OC(=O)CCC/C=C\C[C@@H]1[C@@H](/C=C/[C@@H](O)COc2cccc(C(F)(F)F)c2)[C@H](O)C[C@@H]1O [travoprost]
direct stimulation of inflammatory pathways involving adhesion molecules or class II antigens [2]: None of the drugs appeared to induce direct stimulation of inflammatory pathways
toxicity observed [2]: mild

COC(=O)[C@@H](N)CCCNC(=N)N[N+](=O)[O-] [L-NAME, L-N^G-nitroarginine methyl ester]
conjunctival hyperemia or adverse ocular effects at baseline (time 0) [3]: did not produce conjunctival hyperemia or any adverse ocular effects

CC(C)OC(=O)CCC/C=C\C[C@@H]1[C@@H](CC[C@@H](O)CCc2ccccc2)[C@H](O)C[C@@H]1O [latanoprost]
ocular surface hyperemic response (severity) ([3]; D-NAME treated control eyes, bimatoprost 0.1%, latanoprost 0.005%, scale 0=none, 0.5=trace, 1=mild, 2=moderate, 3=severe): trace to mild
effect of L-NAME on elicited ocular surface hyperemia [3, 6]: blocked
direct stimulation of inflammatory pathways involving adhesion molecules or class II antigens [2]: None of the drugs appeared to induce direct stimulation of inflammatory pathways
toxicity observed [2]: mild
acute effects on blood flow in the conjunctiva (rabbit eye conjunctiva): no significant acute effects

O=C(O)CCC/C=C\C[C@@H]1[C@@H](CC[C@@H](O)CCc2ccccc2)[C@H](O)C[C@@H]1O [Latanoprost free acid, latanoprost free acid]
contraction of the endothelium-denuded preparation ([4]; concentration range of 10^−10 to 10^−6 M): did not contract
response in endothelium-denuded veins ([4]; endothelium-denuded, 10^−5M, latanoprost free acid): only contractions
vasorelaxant response in presence of 100 μM L-NAME compared to 100 μM D-NAME control ([4]; endothelium-intact histamine precontracted tissues, P≦0.05 paired t-test): significantly inhibited
concentration of maximal vasorelaxation ([4]; endothelium-intact preparation): 10^−7 M
response at higher concentrations of 10^−6M and 10^−5M ([4]; endothelium-intact preparation): reversal of the relaxant effects
difference in effects with and without 1 μM indomethacin ([4]; endothelium-intact tissues, each concentration tested): no statistically significant differences

COC(=O)[C@H](N)CCCN=C(N)N[N+](=O)[O-] [D-NAME]
conjunctival hyperemia or adverse ocular effects at baseline (time 0) [3]: did not produce conjunctival hyperemia or any adverse ocular effects

O=C(O)CCC/C=C\C[C@@H]1[C@H](CNNC(=O)Nc2ccccc2)[C@H]2CC[C@@H]1O2 [SQ 29548]
effect of TP antagonist on reversal of the vasorelaxant response to latanoprost free acid ([4]; latanoprost free acid up to 10^−6 M): did not block the reversal of the vasorelaxant response

CCCCC[C@H](O)/C=C/[C@@H]1[C@@H](C/C=C\CCCC(=O)O)[C@@H](O)C[C@H]1O [PGF2a, prostaglandin F2a]
inhibition of response by L-NAME at 100 μM, compared to bimatoprost and latanoprost free acid [5]: less effective

CCCCC[C@H](O)/C=C/[C@H]1[C@H](O)CC(=O)[C@@H]1C/C=C\CCCC(=O)O [PGE2, prostaglandin E2]
effect of L-NAME on elicited ocular surface hyperemia [3, 6]: had no effect
ocular surface hyperemia severity ([3]; PGE2 0.01%, both D-NAME- and L-NAME-treated eyes, scale 0=none to 3=severe): mild to moderate

Source: patent US9579328B2, “Prostaglandin and vasoconstrictor pharmaceutical compositions and methods of use” (ALLERGAN, INC., priority 2012, dated 2017)
